≈ marks a conversion by molar mass, not a printed value. Calls of active or inactive are those of the source. The rule behind the calls is not given here.
Key:
Staphylococcus aureus [1] = test: Antibacterial activity against Staphylococcus aureus ATCC 6538 assessed as reduction in microbial growth measured for 16 to 20 hrs by microdilution assay; assay type: functional; settings: time 16-20 hrs
Staphylococcus aureus [2] = test: Antibacterial activity against Staphylococcus aureus ATCC 29213 assessed as reduction in microbial growth measured for 16 to 20 hrs by microdilution assay; assay type: functional; settings: time 16-20 hrs
Pseudomonas aeruginosa [3] = test: Antibacterial activity against Pseudomonas aeruginosa ATCC 10145 assessed as inhibition of bacterial growth measured for 16 to 20 hrs by microdilution assay; assay type: functional; settings: time 16-20 hrs
Escherichia coli = test: Antibacterial activity against Escherichia coli ATCC 25922 assessed as inhibition of bacterial growth measured for 16 to 20 hrs by microdilution assay; assay type: functional; settings: time 16-20 hrs
Staphylococcus aureus [4] = test: Antibacterial activity against Staphylococcus aureus ATCC 25923 assessed as reduction in microbial growth measured for 16 to 20 hrs by microdilution assay; assay type: functional; settings: time 16-20 hrs
[5] = Metabolic stability in rat liver microsome assessed as parent compound remaining at 50 uM incubated for 1 hr in presence of NADPH regenerating system and GSH by LC-UV analysis; assay type: ADME; settings: liver microsomes, read-out: Stability
Klebsiella pneumoniae [6] = test: Antibacterial activity against Klebsiella pneumoniae ATCC 700603 assessed as inhibition of bacterial growth measured for 16 to 20 hrs by microdilution assay; assay type: functional; settings: time 16-20 hrs
[7] = Metabolic stability in human plasma assessed as parent compound remaining at 50 uM incubated for 60 mins by LC-UV analysis; assay type: ADME, cell-free; settings: read-out: Stability
Osteoblast [8] = test: Cytotoxicity against human Osteoblast cells assessed as reduction in cell viability measured at 128 uM measured for 24 hrs by MTT assay; assay type: toxicity, cell-based
[9] = system: Staphylococcus epidermidis; test: Antibacterial activity against Staphylococcus epidermidis ATCC 12228 assessed as reduction in microbial growth measured for 16 to 20 hrs by microdilution assay; assay type: functional; settings: time 16-20 hrs
HaCaT [10] = test: Cytotoxicity against human HaCaT cells assessed as reduction in cell viability measured at 64 to 128 uM measured for 24 hrs by MTT assay; assay type: toxicity, cell-based; settings: dose 64-128 µM
Osteoblast [11] = test: Cytotoxicity against human Osteoblast cells assessed as reduction in cell viability measured at 64 to 128 uM measured for 24 hrs by MTT assay; assay type: toxicity, cell-based; settings: dose 64-128 µM
Staphylococcus aureus [12] = test: Resistance development in methicillin-resistant Staphylococcus aureus ATCC 43300 assessed as fold increase in MIC after 10 passage; assay type: functional
Staphylococcus aureus [13] = test: Antibacterial activity against methicillin-resistant Staphylococcus aureus ATCC 33592 assessed as reduction in microbial growth measured for 16 to 20 hrs by microdilution assay; assay type: functional; settings: time 16-20 hrs
HaCaT [14] = test: Cytotoxicity against human HaCaT cells assessed as reduction in cell viability measured at 128 uM measured for 24 hrs by MTT assay; assay type: toxicity, cell-based
Staphylococcus aureus [15] = test: Antibacterial activity against methicillin-resistant Staphylococcus aureus ATCC 43300 assessed as reduction in microbial growth by microdilution assay; assay type: functional
Staphylococcus aureus [16] = test: Anti-biofilm activity in Staphylococcus aureus ATCC 6538 assessed as inhibition of biofilm formation at 16 uM measured for 24 hrs by MTT assay; assay type: functional; design: scale not given: the % may be the effect or the level left
Staphylococcus aureus [17] = test: Anti-biofilm activity in Staphylococcus aureus ATCC 6538 assessed as inhibition of biofilm formation upto 128 uM measured for 24 hrs by MTT assay; assay type: functional, organism-based
Staphylococcus aureus [18] = test: Anti-biofilm activity in Staphylococcus aureus ATCC 6538 assessed as inhibition of biofilm formation at 128 uM measured for 24 hrs by MTT assay; assay type: functional; design: scale not given: the % may be the effect or the level left
[19] = system: Staphylococcus epidermidis; test: Antibacterial activity against Staphylococcus epidermidis ATCC 49134 assessed as reduction in microbial growth measured for 16 to 20 hrs by microdilution assay; assay type: functional; settings: time 16-20 hrs
[20] = system: Staphylococcus epidermidis; test: Antibacterial activity against Staphylococcus epidermidis ATCC 35984 assessed as reduction in microbial growth measured for 16 to 20 hrs by microdilution assay; assay type: functional; settings: time 16-20 hrs
Staphylococcus aureus [21] = test: Bactericidal activity against methicillin-resistant Staphylococcus aureus ATCC 43300 measured for 24 hrs by time kill assay; assay type: functional, organism-based
Staphylococcus aureus [22] = test: Induction of cell membrane permeability in Staphylococcus aureus ATCC 6538; assay type: functional, organism-based
Staphylococcus aureus [23] = test: Bactericidal activity against methicillin-resistant Staphylococcus aureus ATCC 43300 incubated for 24 hrs by time kill assay; assay type: functional
Staphylococcus aureus [24] = test: Antibacterial activity against Staphylococcus aureus ATCC 6538 assessed as reduction in cell surface hydrophobicity; assay type: functional, organism-based
Staphylococcus aureus [25] = test: Additive antibacterial activity against methicillin-resistant Staphylococcus aureus assessed as fractional inhibitory concentration index in presence of tetracycline by checker board method; assay type: functional
Staphylococcus aureus [26] = test: Antibacterial activity against methicillin-resistant Staphylococcus aureus ATCC 43300 assessed as reduction in microbial growth measured for 16 to 20 hrs by microdilution assay; assay type: functional; settings: time 16-20 hrs
Acinetobacter baumannii = test: Antibacterial activity against Acinetobacter baumannii assessed as inhibition of bacterial growth; assay type: functional
Pseudomonas aeruginosa [27] = test: Antibacterial activity against Pseudomonas aeruginosa assessed as inhibition of bacterial growth; assay type: functional
Clostridium tetani = test: Antibacterial activity against Clostridium tetani assessed as inhibition of bacterial growth; assay type: functional
[28] = system: Clavibacter michiganensis; test: Antibacterial activity against Clavibacter michiganensis assessed as inhibition of bacterial growth; assay type: functional
[29] = Metabolic stability in human liver microsome assessed as intrinsic clearance at 5 uM incubated for 1 hr in presence of NADPH regenerating system and GSH by LC-UV analysis; assay type: ADME; settings: liver microsomes, read-out: CLH
Staphylococcus aureus [30] = test: Additive antibacterial activity against methicillin-resistant Staphylococcus aureus assessed as fractional inhibitory concentration index in presence of ciprofloxacin by checker board method; assay type: functional
[31] = Metabolic stability in human liver microsome assessed as half life at 5 uM incubated for 1 hr in presence of NADPH regenerating system and GSH by LC-UV analysis; assay type: ADME; settings: liver microsomes
[32] = Metabolic stability in human liver microsome assessed as parent compound remaining at 50 uM incubated for 1 hr in presence of NADPH regenerating system and GSH by LC-UV analysis; assay type: ADME; settings: liver microsomes, read-out: Stability
Staphylococcus aureus [33] = test: Antibacterial activity against Staphylococcus aureus assessed as inhibition of bacterial growth; assay type: functional
Klebsiella pneumoniae [34] = test: Antibacterial activity against Klebsiella pneumoniae assessed as inhibition of bacterial growth; assay type: functional
Bacillus anthracis = test: Antibacterial activity against Bacillus anthracis assessed as inhibition of bacterial growth; assay type: functional

SMILES | MIC (Staphylococcus aureus [1]) | MIC (Staphylococcus aureus [2]) | MIC (Pseudomonas aeruginosa [3]) | MIC (Escherichia coli) | MIC (Staphylococcus aureus [4]) | MIC (Klebsiella pneumoniae [6]) | MIC [9] | MIC (Staphylococcus aureus [13]) | MIC [19] | MIC [20] | MIC (Staphylococcus aureus [26]) | further results
[C-]#[N+]c1ccc(C(=O)NCc2ccccc2)cc1 | > 8 µM | > 8 µM | ≥ 64 µM | ≥ 64 µM | > 8 µM | ≥ 64 µM |  |  |  |  |  | remaining at 1 h, 50 µM [5]: 29%; remaining at 1 h, 50 µM [7]: 91%
[C-]#[N+]c1ccc(NC(=O)COc2ccccc2)cc1 | 8 µM | 8 µM | ≥ 64 µM | ≥ 64 µM | 2 µM | ≥ 64 µM | 0.5 µM | 4 µM | 0.25 µM | 0.25 µM | 2 µM | Activity (Osteoblast [8]): > 70%; Activity (HaCaT [10]): Non-Toxic; Activity (Osteoblast [11]): Non-Toxic; fold change (FC) (Staphylococcus aureus [12]): >4; Activity (HaCaT [14]): < 70%; MIC (Staphylococcus aureus [15]): 4 µM; Activity (Staphylococcus aureus [16]): 10%; Activity (Staphylococcus aureus [17]): inactive; Activity (Staphylococcus aureus [18]): 94%; Activity (Staphylococcus aureus [21]): Active; Activity (Staphylococcus aureus [22]): Active; Activity (Staphylococcus aureus [23]): >=99.9%; Activity (Staphylococcus aureus [24]): inactive; fractional inhibitory concentration index (FICI) (Staphylococcus aureus [25]): 0.75
[C-]#[N+]C(=C\c1ccc(O)cc1)/C(=C/c1ccc(O)cc1)[N+]#[C-] [XANTOCILLIN] |  |  |  |  |  |  |  |  |  |  |  | MIC (Acinetobacter baumannii): 0.25 µM (≈ 0.0721 µg/mL); MIC (Pseudomonas aeruginosa [27]): 0.69 µM (≈ 0.199 µg/mL); MIC (Clostridium tetani): 0.69 µM (≈ 0.199 µg/mL)
[C-]#[N+]C(=C\c1ccc(O)cc1)/C(=C/c1ccc2c(c1)CCC(C)(C)O2)[N+]#[C-] |  |  |  |  |  |  |  |  |  |  |  | MIC [28]: 0.87 µM (≈ 0.31 µg/mL)
[C-]#[N+]c1ccc(NC(=O)c2ccncc2)cc1 | > 8 µM | > 8 µM | ≥ 64 µM | ≥ 64 µM | > 8 µM | ≥ 64 µM |  |  |  |  |  | remaining at 1 h, 50 µM [5]: 29%; remaining at 1 h, 50 µM [7]: > 99%
[C-]#[N+]c1ccc(NC(=O)Cc2ccccc2)cc1 | > 8 µM | > 8 µM | ≥ 64 µM | ≥ 64 µM | 8 µM | ≥ 64 µM | 2 µM | > 8 µM | 1 µM | 1 µM | > 8 µM | remaining at 1 h, 50 µM [5]: 20%; remaining at 1 h, 50 µM [7]: > 99%
O=C(O)c1cn(C2CC2)c2cc(N3CCNCC3)c(F)cc2c1=O [CIPROFLOXACIN] | 0.38 µM | 0.75 µM |  |  | 0.75 µM |  | 0.38 µM | 0.75 µM | 0.38 µM | 0.19 µM | 0.75 µM | MIC (Staphylococcus aureus [15]): 1 µM
COc1cc(Cc2cnc(N)nc2N)cc(OC)c1OC |  |  |  |  |  |  |  |  |  |  |  | Activity (Staphylococcus aureus [17]): inactive
[C-]#[N+]c1ccc(NC(=O)Cc2cccc(Cl)c2)cc1 | 8 µM | 8 µM | ≥ 64 µM | ≥ 64 µM | 2 µM | ≥ 64 µM | 0.5 µM | 4 µM | 0.25 µM | 0.25 µM | 4 µM | Activity (Osteoblast [8]): > 70%; Activity (HaCaT [10]): Non-Toxic; Activity (Osteoblast [11]): Non-Toxic; fold change (FC) (Staphylococcus aureus [12]): >4; MIC (Staphylococcus aureus [15]): 4 µM; Activity (Staphylococcus aureus [16]): 10%; microsomal CLint at 5 µM [29]: 24.4 µL/min/mg; Activity (Staphylococcus aureus [17]): inactive; Activity (Staphylococcus aureus [18]): 94%; fractional inhibitory concentration index (FICI) (Staphylococcus aureus [30]): 0.75; Activity (Staphylococcus aureus [21]): Active; half-life at 5 µM [31]: 26.2 min; Activity (Staphylococcus aureus [22]): Active; Activity (Staphylococcus aureus [23]): >=99.9%; Activity (Staphylococcus aureus [24]): inactive; remaining at 1 h, 50 µM [5]: 53%; fractional inhibitory concentration index (FICI) (Staphylococcus aureus [25]): 0.75; remaining at 1 h, 50 µM [7]: > 99%; remaining at 1 h, 50 µM [32]: 82%
[C-]#[N+]c1ccc(/C=C/c2ccccc2)cc1 | 8 µM | 8 µM |  |  | 4 µM |  | 2 µM | 8 µM | 1 µM | 1 µM | 8 µM | Activity (HaCaT [10]): Non-Toxic; Activity (HaCaT [14]): < 70%; Activity (Staphylococcus aureus [21]): Active
[C-]#[N+]/C(Cl)=C/C1(OC(C)=O)C(=O)Nc2ccccc21 (stereo not given) |  |  |  |  |  |  |  |  |  |  |  | MIC (Staphylococcus aureus [33]): 0.18 µM (≈ 0.0498 µg/mL); MIC (Klebsiella pneumoniae [34]): 0.7 µM (≈ 0.194 µg/mL); MIC (Bacillus anthracis): 0.7 µM (≈ 0.194 µg/mL)
[C-]#[N+]c1ccc(NC(=O)Cc2cccc([N+](=O)[O-])c2)cc1 | 8 µM | 8 µM | ≥ 64 µM | ≥ 64 µM | 4 µM | ≥ 64 µM | 4 µM | 4 µM | 2 µM | 4 µM | 4 µM | 
[C-]#[N+]c1ccc(NC(=O)Cc2cccc(C#N)c2)cc1 | 8 µM | 8 µM | ≥ 64 µM | ≥ 64 µM | 4 µM | ≥ 64 µM | 2 µM | 8 µM | 2 µM | 2 µM | 8 µM | 
[C-]#[N+]c1ccc(NC(=O)Cc2ccc(Cl)cc2)cc1 | 8 µM | 8 µM | ≥ 64 µM | ≥ 64 µM | 2 µM | ≥ 64 µM | 0.5 µM | 8 µM | 0.25 µM | 0.25 µM | 4 µM | 
[C-]#[N+]C(=C)[C@@](Cc1ccc(OC)cc1)([N+]#[C-])[C@@H]1C[C@@H](OC(=O)CO)CC[C@@H]1O |  |  |  |  |  |  |  |  |  |  |  | MIC (Acinetobacter baumannii): 0.52 µM (≈ 0.2 µg/mL); MIC (Pseudomonas aeruginosa [27]): 0.52 µM (≈ 0.2 µg/mL)
[C-]#[N+]c1ccc(NC(=O)CCC2CCCC2)cc1 | 8 µM | 8 µM | ≥ 64 µM | ≥ 64 µM | 4 µM | ≥ 64 µM | 1 µM | 8 µM | 2 µM | 1 µM | 8 µM | 
[C-]#[N+]c1ccc(NC(=O)Cc2ccc(OC)cc2)cc1 | 8 µM | 8 µM | ≥ 64 µM | ≥ 64 µM | 4 µM | ≥ 64 µM | 2 µM | 8 µM | 2 µM | 2 µM | 8 µM | 
[C-]#[N+]c1ccc(NC(=O)CCc2ccccc2)cc1 | 8 µM | 8 µM | ≥ 64 µM | ≥ 64 µM | 4 µM | ≥ 64 µM | 2 µM | > 8 µM | 2 µM | 1 µM | 8 µM | 

From ChEMBL document CHEMBL5352456, “Isocyanides in med chem: A scaffold hopping approach for the identification of novel 4-isocyanophenylamides as potent antibacterial agents against methicillin-resistant Staphylococcusaureus” (Eur J Med Chem, 2023)
